pEC50, pKd: −log10 of the molar value.
What was measured:
[1] = target: chloride channel; experiment: In vitro human erythrocyte chloride conductance; format: cell-based; details: suspensions of human erythrocytes; from Cl- netfluxes and membrane potentials; read-out: KD-value (chloride channel blocking activity, membrane Cl-conductance)
Text: In this example the chloride channel blocking activity of an acetamide derivative representative of the invention, i.e. Compound 3 (3-(3,5-Bis-trifluoromethyl-phenyl)-3-oxo-N-[3-(1H-tetrazol-5-yl)-4′-trifluoromethoxy-biphenyl-4-yl]-propionamide), has been determined.
All dose-response experiments were therefore performed by concomitant measurements of conductive netfluxes of Cl^− (Jcl) and membrane potentials (Vm) in suspensions of erythrocytes as described by Bennekou et al. (Bennekou P and Christophersen P: Flux ratio of Valinomycin-Mediated K^+ Fluxes across the Human Red Cell Membrane in the presence of the Protronophore CCCP; J. Membrane Biol. 1986 93 221-227).
The membrane Cl-conductances (GCl) were calculated according to Hodgkin et al. (Hodgkin A L and Huxley A F: The components of membrane conductance in the giant axon of Loligo; J. Physiol. Lond. 1952 116 449-472) using the following equation: […]
where F is the Faraday constant and ECl is the Nernst potential for the Cl-ion.

[2] = target: T1, BK channels (Homo sapiens, UniProt Q12791); experiment: BK channel activation, two-electrode voltage clamp in Xenopus laevis oocytes; format: cell-based; details: BK channels heterologously expressed in Xenopus laevis oocytes, 0.01-31.6 μM compound
T1 construct: expressed in transfected cells; host or cells: Xenopus laevis oocytes
T1 sequence (Q12791 whole entry): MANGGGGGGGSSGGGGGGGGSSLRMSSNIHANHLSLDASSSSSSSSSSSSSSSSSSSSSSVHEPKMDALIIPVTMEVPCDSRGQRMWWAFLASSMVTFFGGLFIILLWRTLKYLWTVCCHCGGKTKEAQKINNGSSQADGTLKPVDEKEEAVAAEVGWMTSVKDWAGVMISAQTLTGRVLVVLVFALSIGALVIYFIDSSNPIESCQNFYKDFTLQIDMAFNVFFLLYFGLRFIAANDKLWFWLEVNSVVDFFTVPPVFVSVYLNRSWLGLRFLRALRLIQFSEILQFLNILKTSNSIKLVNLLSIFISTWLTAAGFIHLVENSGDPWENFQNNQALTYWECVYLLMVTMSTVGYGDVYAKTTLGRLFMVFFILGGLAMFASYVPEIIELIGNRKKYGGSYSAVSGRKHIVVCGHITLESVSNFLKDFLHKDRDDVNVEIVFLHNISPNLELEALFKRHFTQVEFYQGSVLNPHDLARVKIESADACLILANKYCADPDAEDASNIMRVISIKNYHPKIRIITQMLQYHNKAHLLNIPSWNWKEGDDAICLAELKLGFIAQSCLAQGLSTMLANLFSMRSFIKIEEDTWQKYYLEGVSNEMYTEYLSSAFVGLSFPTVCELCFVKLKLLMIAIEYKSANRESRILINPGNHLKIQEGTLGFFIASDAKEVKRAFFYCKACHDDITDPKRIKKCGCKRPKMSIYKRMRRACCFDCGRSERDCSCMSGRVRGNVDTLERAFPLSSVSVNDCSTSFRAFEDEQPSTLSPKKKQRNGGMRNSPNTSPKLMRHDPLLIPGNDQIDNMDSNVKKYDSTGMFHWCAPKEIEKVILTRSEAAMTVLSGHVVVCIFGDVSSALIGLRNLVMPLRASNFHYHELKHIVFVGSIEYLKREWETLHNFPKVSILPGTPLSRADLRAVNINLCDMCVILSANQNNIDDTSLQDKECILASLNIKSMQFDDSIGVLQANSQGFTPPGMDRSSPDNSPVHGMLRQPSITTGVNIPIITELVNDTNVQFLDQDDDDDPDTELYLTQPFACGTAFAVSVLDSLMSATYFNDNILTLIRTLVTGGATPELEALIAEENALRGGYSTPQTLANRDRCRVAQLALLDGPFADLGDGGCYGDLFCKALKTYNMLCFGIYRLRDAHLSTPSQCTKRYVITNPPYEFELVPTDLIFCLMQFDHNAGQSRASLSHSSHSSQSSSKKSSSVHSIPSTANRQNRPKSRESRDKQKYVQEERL
Experimental: In this example the BK channel opening activity of Compound 4 (i.e. N-[5-Chloro-2-(1H-tetrazol-5-yl)-phenyl]-3-(4-chloro-3-trifluoromethyl-phenyl)-3-oxo-propionamide) is determined using BK channels heterologously expressed in Xenopus laevis oocytes.
The electrical current through the BK channel is measured using conventional two-electrode voltage clamp. BK currents are activated by repeating ramp protocols. In brief, the membrane potential is continuously changed from −120 mV to +120 mV within 2 s. The threshold for BK activation is approximately +30 mV under control conditions. Compounds are applied for 100 s during which the ramp protocol is repeated 10 times with 10 s intervals. In between the ramp protocols the membrane potential is clamped at −80 mV. […]
In order to evaluate the ability of the compounds to shift the BK activation curve towards lower membrane potentials, the BK current was transformed into conductance by using Ohm's law g=I/(Ememb−Erev), where g is the conductance, I is the current, Ememb is the membrane potential and Erev is the reversal potential. […] The control conductance level at a membrane potential of +100 mV was calculated, and the compound effect was evaluated as the potential difference, ΔV, to the membrane potential at which the same conductance level was obtained in the presence of compound. […]

SMILES | pKd [1] | ΔVmax (maximal left shift of the BK activation curve) ([2]; fitted to sigmoidal logistic equation) [mV] | pEC50 ([2]; ΔV vs. control conductance at +100 mV, read-out: EC50 for the left-shift of the BKCa-activation curve)
O=C(CC(=O)c1cc(C(F)(F)F)cc(C(F)(F)F)c1)Nc1ccc(-c2ccc(OC(F)(F)F)cc2)cc1-c1nnn[nH]1 [Compound 3, 3-(3,5-Bis-trifluoromethyl-phenyl)-3-oxo-N-[3-(1H-tetrazol-5-yl)-4′-trifluoromethoxy-biphenyl-4-yl]-propionamide] | 6.68 |  | 
O=C(CC(=O)c1ccc(Cl)c(C(F)(F)F)c1)Nc1cc(Cl)ccc1-c1nnn[nH]1 [Compound 4, N-[5-Chloro-2-(1H-tetrazol-5-yl)-phenyl]-3-(4-chloro-3-trifluoromethyl-phenyl)-3-oxo-propionamide] |  | −123 | 5.74
